US20190224201A1, “PHARMACEUTICAL COMPOSITION COMPRISING NEPTINIB OR SALT THEREOF AND METHOD FOR CONTROLLING IMPURITY THEREOF” (SHENZHEN NEPTUNUS PHARMACEUTICAL RESEARCH INSTITUTE CO., …, priority 2016, published 2019)

Assays:
Assay type in all cases: physicochemical
[1] = Accelerated stability test, detection of impurity A and total impurity by HPLC; conditions: active ingredient alone, accelerated stability test at 40° C. for 6 months
Source text: The method for detecting impurity A and total impurity was shown as follows:
Equipment: Agilent 1260 series;
Column: XBridge Shield RP18 column (100×4.6 mm, 3.5 μm);
Mobile phase A: 0.05 mol/L potassium dihydrogen phosphate solution (adjusted to pH 7.2 with sodium hydroxide solution)-acetonitrile (20:80);
Mobile phase B: 0.05 mol/L potassium dihydrogen phosphate solution (adjusted to pH 7.2 with sodium hydroxide solution)-acetonitrile (40:60);
Detection wavelength: 247 nm;
Column temperature: 30° C.;
Solvent: acetonitrile-water (50:50).

[2] = API and excipients compatibility study (10 days of stress testing of mixed powders)
[3] = Risk assessment of the API and excipients compatibility
Source text: Level 1 (low risk): maximum single impurity is less than 0.1% and total impurity is less than 0.2%;
Level 2 (medium risk): maximum single impurity is 0.1-0.2% or total impurity is 0.2%-0.4%;
Level 3 (high risk): maximum single impurity is more than 0.2% or total impurity is more than 0.4%.

[4] = Day 10, Illumination (4500 ± 5001x)

change in the content of impurities in the active ingredient [1]: no significant change
Maximum single impurity (%) ([2]; Day 0): 0.02%
Total impurity (%) ([2]; Day 0): 0.02%
Maximum single impurity (%) ([2]; Day 10, 60° C. ± 2° C.): 0.02%
Total impurity (%) ([2]; Day 10, 60° C. ± 2° C.): 0.04%
Maximum single impurity (%) [2, 4]: 0.12%
Total impurity (%) [2, 4]: 0.14%
Maximum single impurity (%) ([2]; Day 10, RH75% ± 5%): 0.02%
Total impurity (%) ([2]; Day 10, RH75% ± 5%): 0.02%
Maximum single impurity (%) ([2]; Day 10, RH92.5% ± 5%): 0.02%
Total impurity (%) ([2]; Day 10, RH92.5% ± 5%): 0.02%
Risk level assessment value Total ([3]; sum over RH75%, RH92.5%, 60° C., Illumination): 5
Structure (SMILES): CCOc1cc2ncnc(Nc3ccc(F)c(Cl)c3)c2cc1NC(=O)/C=C/CN(C)C [API, (E)-N-(4-((3-chloro-4-fluorophenyl)amino)-7-ethoxyquinazolin-6-yl)-4-(dimethylamino)but-2-enamide]
Risk level assessment value 60° C. ([3]; 60° C., 10 days stress testing): 1 (Level 1 (low risk): maximum single impurity is less than 0.1% and total impurity is less than 0.2%)
Risk level assessment value Illumination ([3]; Illumination, 10 days stress testing): 2 (Level 2 (medium risk): maximum single impurity is 0.1-0.2% or total impurity is 0.2%-0.4%)
Risk level assessment value RH75% ([3]; RH75%, 10 days stress testing): 1 (Level 1 (low risk): maximum single impurity is less than 0.1% and total impurity is less than 0.2%)
Risk level assessment value RH92.5% ([3]; RH92.5%, 10 days stress testing): 1 (Level 1 (low risk): maximum single impurity is less than 0.1% and total impurity is less than 0.2%)
